Data taken from patent publication US5389627A, “Cephem compounds” (priority 1993, dated 1995).
In brackets after ≈: the same amount, converted by molar mass.

How the values were obtained:
Test in all cases: In vitro antibacterial activity, minimum inhibitory concentration
Assay type in all cases: cell-based
E.cloacae C4009 = settings: Enterobacter cloacae; E.cloacae C4009; read-out: Minimum Inhibitory Concentration (MIC)
Text: (§1) As reference compounds, Cefotaxime (CTX), Ceftazidime (CAZ) and Cefpirome (CPR) were employed.

E.coli C4002 = settings: Escherichia coli; E.coli C4002; read-out: Minimum Inhibitory Concentration (MIC)
Text: as §1

P.mirabilis ATCC25933 = settings: Proteus mirabilis; P.mirabilis ATCC25933; read-out: Minimum Inhibitory Concentration (MIC)
Text: as §1

S.aureus C4036 = settings: Staphylococcus aureus; S.aureus C4036; read-out: Minimum Inhibitory Concentration (MIC)
Text: as §1

S.pyogenes ATCC 8668 = settings: Streptococcus pyogenes, ATCC8668; S.pyogenes ATCC 8668; read-out: Minimum Inhibitory Concentration (MIC)
Text: as §1

S.Faecalis ATCC29212 = settings: Enterococcus faecalis
Text: as §1

S.aureus Smith = settings: Staphylococcus aureus; S.aureus Smith; read-out: Minimum Inhibitory Concentration (MIC)
Text: as §1

S.pyogenes C4003 = settings: Streptococcus pyogenes; S.pyogenes C4003; read-out: Minimum Inhibitory Concentration (MIC)
Text: as §1

P.aeruginosa ATCC10145 = settings: Pseudomonas aeruginosa; P.aeruginosa ATCC10145; read-out: Minimum Inhibitory Concentration (MIC)
Text: as §1

S.typhimurium C4045 = settings: Salmonella enterica; S.typhimurium C4045; read-out: Minimum Inhibitory Concentration (MIC)
Text: as §1

K.pneumoniae C1040 = settings: Klebsiella pneumoniae; K.pneumoniae C1040; read-out: Minimum Inhibitory Concentration (MIC)
Text: as §1

S.epidermidis ATCC12228 = settings: Staphylococcus epidermidis; S.epidermidis ATCC12228; read-out: Minimum Inhibitory Concentration (MIC)
Text: as §1

E.coli ATCC10536 = settings: Escherichia coli; E.coli ATCC10536; read-out: Minimum Inhibitory Concentration (MIC)
Text: as §1

E.cloacae C4008 = settings: Enterobacter cloacae; E.cloacae C4008; read-out: Minimum Inhibitory Concentration (MIC)
Text: as §1

S.aureus ATCC29213 = settings: Staphylococcus aureus; S.aureus ATCC29213; read-out: Minimum Inhibitory Concentration (MIC)
Text: as §1

K.oxytoca C4022 = settings: Klebsiella oxytoca; K.oxytoca C4022; read-out: Minimum Inhibitory Concentration (MIC)
Text: as §1

P.rettgeri ATCC9919 = settings: Providencia rettgeri; P.rettgeri ATCC9919; read-out: Minimum Inhibitory Concentration (MIC)
Text: as §1

S.marcescens ATCC27117 = settings: Serratia marcescens; S.marcescens ATCC27117; read-out: Minimum Inhibitory Concentration (MIC)
Text: as §1

K.pneumoniae ATCC10031 = settings: Klebsiella pneumoniae; K.pneumoniae ATCC10031; read-out: Minimum Inhibitory Concentration (MIC)
Text: as §1

MRSA C2208 = settings: Staphylococcus aureus; MRSA C2208; read-out: Minimum Inhibitory Concentration (MIC)
Text: as §1

P.aeruginosa ATCC27853 = settings: Pseudomonas aeruginosa; P.aeruginosa ATCC27853; read-out: Minimum Inhibitory Concentration (MIC)
Text: as §1

S.marcescens C1052 = settings: Serratia marcescens; S.marcescens C1052; read-out: Minimum Inhibitory Concentration (MIC)
Text: as §1

E.coli ATCC25922 = settings: Escherichia coli; E.coli ATCC25922; read-out: Minimum Inhibitory Concentration (MIC)
Text: as §1

P.aeruginosa C4070 = settings: Pseudomonas aeruginosa; P.aeruginosa C4070; read-out: Minimum Inhibitory Concentration (MIC)
Text: as §1

P.aeruginosa C2027 = settings: Pseudomonas aeruginosa; P.aeruginosa C2027; read-out: Minimum Inhibitory Concentration (MIC)
Text: as §1

Row | MIC (E.cloacae C4009) [µg/mL] | MIC (E.coli C4002) [µg/mL] | MIC (P.mirabilis ATCC25933) [µg/mL] | MIC (S.aureus C4036) [µg/mL] | MIC (S.pyogenes ATCC 8668) [µg/mL] | MIC (S.Faecalis ATCC29212) [µg/mL] | MIC (S.aureus Smith) [µg/mL] | MIC (S.pyogenes C4003) [µg/mL] | MIC (P.aeruginosa ATCC10145) [µg/mL] | MIC (S.typhimurium C4045) [µg/mL] | MIC (K.pneumoniae C1040) [µg/mL] | MIC (S.epidermidis ATCC12228) [µg/mL] | MIC (E.coli ATCC10536) [µg/mL] | MIC (E.cloacae C4008) [µg/mL] | MIC (S.aureus ATCC29213) [µg/mL] | MIC (K.oxytoca C4022) [µg/mL] | MIC (P.rettgeri ATCC9919) [µg/mL] | MIC (S.marcescens ATCC27117) [µg/mL] | MIC (K.pneumoniae ATCC10031) [µg/mL] | MIC (MRSA C2208) [µg/mL] | Structure (SMILES) | further results
1 | 0.1 (≈ 0.22 µM) | 0.05 (≈ 0.11 µM) | 0.025 (≈ 0.0549 µM) | 1.56 (≈ 3.43 µM) | 0.004 (≈ 0.00878 µM) | > 100 | 1.56 (≈ 3.43 µM) | 0.004 (≈ 0.00878 µM) | 25 (≈ 54.9 µM) | 0.05 (≈ 0.11 µM) | 0.025 (≈ 0.0549 µM) | 0.78 (≈ 1.71 µM) | 0.025 (≈ 0.0549 µM) | 0.025 (≈ 0.0549 µM) | 1.56 (≈ 3.43 µM) | 0.78 (≈ 1.71 µM) | 0.004 (≈ 0.00878 µM) | 0.1 (≈ 0.22 µM) | 0.002 (≈ 0.00439 µM) | > 100 | CO/N=C(\C(=O)N[C@@H]1C(=O)N2C(C(=O)O)=C(COC(C)=O)CS[C@H]12)c1csc(N)n1 [CTX, Cefotaxime, reference compound] | MIC (P.aeruginosa ATCC27853): 25 µg/mL (≈ 54.9 µM); MIC (S.marcescens C1052): 0.2 µg/mL (≈ 0.439 µM); MIC (E.coli ATCC25922): 0.1 µg/mL (≈ 0.22 µM); MIC (P.aeruginosa C4070): 50 µg/mL (≈ 110 µM); MIC (P.aeruginosa C2027): 3.13 µg/mL (≈ 6.87 µM)
2 | 0.2 (≈ 0.349 µM) | 0.1 (≈ 0.174 µM) | 0.1 (≈ 0.174 µM) | 1.56 (≈ 2.72 µM) | 0.007 (≈ 0.0122 µM) | > 100 | 0.78 (≈ 1.36 µM) | 0.007 (≈ 0.0122 µM) | 50 (≈ 87.2 µM) | 0.1 (≈ 0.174 µM) | 0.025 (≈ 0.0436 µM) | 0.78 (≈ 1.36 µM) | 0.05 (≈ 0.0872 µM) | 0.05 (≈ 0.0872 µM) | 1.56 (≈ 2.72 µM) | 6.25 (≈ 10.9 µM) | 0.013 (≈ 0.0227 µM) | 0.1 (≈ 0.174 µM) | 0.025 (≈ 0.0436 µM) | > 100 | CO/N=C(\C(=O)N[C@@H]1C(=O)N2C(C(=O)[O-])=C(C[n+]3ccc4c(c3)NC(=C[N+](=O)[O-])N4)CS[C@H]12)c1csc(N)n1 [Ex. 1] | MIC (P.aeruginosa ATCC27853): 50 µg/mL (≈ 87.2 µM); MIC (S.marcescens C1052): 0.2 µg/mL (≈ 0.349 µM); MIC (E.coli ATCC25922): 0.1 µg/mL (≈ 0.174 µM); MIC (P.aeruginosa C4070): > 100 µg/mL; MIC (P.aeruginosa C2027): 6.25 µg/mL (≈ 10.9 µM)
3 | 0.2 (≈ 0.348 µM) | 0.1 (≈ 0.174 µM) | 0.1 (≈ 0.174 µM) | 3.13 (≈ 5.45 µM) | 0.013 (≈ 0.0226 µM) | > 100 | 3.13 (≈ 5.45 µM) | 0.007 (≈ 0.0122 µM) | 50 (≈ 87 µM) | 0.2 (≈ 0.348 µM) | 0.05 (≈ 0.087 µM) | 1.56 (≈ 2.72 µM) | 0.05 (≈ 0.087 µM) | 0.05 (≈ 0.087 µM) | 1.56 (≈ 2.72 µM) | 12.5 (≈ 21.8 µM) | 0.025 (≈ 0.0435 µM) | 0.2 (≈ 0.348 µM) | 0.05 (≈ 0.087 µM) | > 100 | CO/N=C(\C(=O)N[C@@H]1C(=O)N2C(C(=O)[O-])=C(C[n+]3ccc4c(c3)NC(=C[N+](=O)[O-])N4)CS[C@H]12)c1nsc(N)n1 [Ex. 2, 7-β-[(Z)-2-(5-Amino-1,2,4-thiadiazol-3-yl)-2-methoxyiminoacetamido]-3-[2-(1H,3H)-nitromethylen-yl-imidazo[4,5-c]-pyridiniummethyl]-3-cephem-4-carboxylate] | MIC (P.aeruginosa ATCC27853): > 100 µg/mL; MIC (S.marcescens C1052): 0.2 µg/mL (≈ 0.348 µM); MIC (E.coli ATCC25922): 0.1 µg/mL (≈ 0.174 µM); MIC (P.aeruginosa C4070): > 100 µg/mL; MIC (P.aeruginosa C2027): 6.25 µg/mL (≈ 10.9 µM)
